Measured values taken from patent publication US20260125679A1, “FINE-TUNING INFLAMMATION BY ALTERING 3'UTR LENGTH” (priority 2023, published 2026).
Numbered stars: 1 amine (or outer) side, 2 acyl side, 3 side chain; on linkers, the order of the positions; unused ones are H or OH. Bridge positions count the residues as written; N and C are the ends. Square brackets hold non-standard residues; d marks the D form. Peptide text beside a SMILES is read from it. I, II: the chains in the order shown. Actinocin(9to1) = Cc1c2oc3c(C)ccc(C(=O)[*:1])c3nc-2c(C(=O)[*:2])c(N)c1=O; NMeV = CN[C@H](C(=O)O)C(C)C; Sar = CNCC(=O)O

How the values were obtained:
neurons and hESCs = assay: Specificity of RNA polymerase inhibitors (mRNA and mtRNA levels); assay type: cell-based, human; details: 12 hours treatment
Description: (§1) We transiently treated neurons with different RNA polymerase inhibitors for 12 hours prior to J2 staining to determine if RNA polymerase II (POLII) or mitochondrial RNA polymerase (POLRMT) give rise to neuronal dsRNA. The following inhibitors were used: actinomycin D (ActD), which inhibits both POLII and POLRMT (16); α-amanitin, a POLII inhibitor; and IMT1, a POLRMT-specific inhibitor (25). […] By quantifying depletion of dsRNA upon single treatments with α-amanitin or IMT1 treatment, we calculated the proportional contribution of POLII- or POLRMT-derived dsRNAs, respectively. We applied this analysis to various cell types. In HeLa cells, roughly 90% of dsRNA was derived from POLRMT. This is consistent with a prior study that concluded that roughly 95% of dsRNA in HeLa cells is located in mitochondria (16), validating our analysis. In both hESCs and HEK-293T cells, POLRMT and POLII contribute to roughly 70% and 30% of dsRNA, respectively. Conversely, in neurons, POLRMT and POLII transcripts contribute to 40% and 60% of dsRNA, respectively. […] In summary, mtRNA is the major component of dsRNA in HeLa, HEK-293T, and hESCs. However, in neurons, POLII-derived transcripts, presumably mRNAs, contribute to the bulk of the neuronal dsRNA load.
(§2) For treatment with various polymerase inhibitors, cells were treated for 12 hours prior to harvest with either ActD (10 ug/mL, Sigma), α-amanitin (25 ug/mL, Sigma), or IMT1 (1 uM, MedChemExpress).
RNA was extracted directly from cell samples using the Direct-zol RNA Miniprep kit (Zymo Research). cDNA conversion was completed using the ProtoScript II First Strand cDNA Synthesis kit (New England Biolabs). PowerUp SYBR Green (Thermo Fisher Scientific) and QuantStudio 3 Real-Time PCR System were used for qRT-PCR, and all primers are listed in Table S1. RPS11 or 18S rRNA were used as a housekeeping gene for normalization.

[1] = test system: dsRNA in neurons, hESCs, HEK-293T and HeLa cells; assay: J2 staining of dsRNA after RNA polymerase inhibitor treatment; assay type: cell-based, human
Description: as §1, §2
Cells grown on glass coverslips were washed with PBS and fixed using 4% paraformaldehyde for 20 minutes at 4° C. Samples were then blocked and permeabilized in PBTG (PBS, 1% BSA, 0.1% Triton-X100, 10% goat serum) for 1 hour at room temperature. Primary antibodies were diluted in PBTG and stained overnight at 4° C. Secondary antibodies (either goat anti-mouse IgG Alexa Fluor 488 or goat anti-rabbit IgG Alexa Fluor 594, Invitrogen (A11001 and A11012)) and DAPI were diluted in PBTG and stained for 1 hour at room temperature prior to mounting. Samples were imaged on an LSM-710 confocal microscope.
Images were processed and analyzed using ImageJ. MFI of individual cells was determined by tracing cell outlines. MFI data depicts 12 individual cells taken from at least 3 independent images. For colocalization analysis, the JACop plugin was used to measure MFI of 4 independent images.

Row | Structure (SMILES) | mRNA levels (neurons and hESCs) | proportion of dsRNA derived from POLII (depletion of dsRNA upon α-amanitin) ([1]; hESCs and HEK-293T cells) [%] | proportion of dsRNA derived from POLII (depletion of dsRNA upon α-amanitin) ([1]; neurons) [%] | mtRNA levels (neurons and hESCs) | dsRNA signal (J2) ([1]; neurons and hESCs, 12 hours treatment) | proportion of dsRNA derived from POLRMT (depletion of dsRNA upon IMT1) ([1]; HeLa cells) | proportion of dsRNA derived from POLRMT (depletion of dsRNA upon IMT1) ([1]; hESCs and HEK-293T cells) | proportion of dsRNA derived from POLRMT (depletion of dsRNA upon IMT1) ([1]; neurons) [%]
1 | CC[C@H](C)[C@@H]1NC(=O)CNC(=O)[C@@H]2Cc3c([nH]c4cc(O)ccc34)[S+]([O-])C[C@@H](NC(=O)CNC1=O)C(=O)N[C@@H](CC(N)=O)C(=O)N1C[C@H](O)C[C@H]1C(=O)N[C@@H]([C@@H](C)[C@@H](O)CO)C(=O)N2 (stereo in doubt) [α-amanitin] | down-regulated | ~30 | 60 | – | – | – | – | –
2 | Cc1c2oc3c(C)ccc(C(=O)N[C@@H]4C(=O)N[C@H](C(C)C)C(=O)N5CCC[C@H]5C(=O)N(C)CC(=O)N(C)[C@@H](C(C)C)C(=O)O[C@@H]4C)c3nc-2c(C(=O)N[C@@H]2C(=O)N[C@H](C(C)C)C(=O)N3CCC[C@H]3C(=O)N(C)CC(=O)N(C)[C@@H](C(C)C)C(=O)O[C@@H]2C)c(N)c1=O [ActD, actinomycin D] (I: T[dV]P[Sar][NMeV] / II: T[dV]P[Sar][NMeV]; ester I:1-I:C, II:1-II:C; linker I:N-II:N via Actinocin(9to1)) | down-regulated | – | – | down-regulated | abrogate almost all dsRNA signal | – | – | –
3 | Cc1ccccc1-c1cc(=O)oc2cc(OC(C)C(=O)N(C)C)ccc12 (stereo not shown) [IMT1] | – | – | – | down-regulated | – | roughly 90% | roughly 70% | 40
